Legend:
[1] = target: T1, hACKR3 (atypical chemokine receptor 3; CXCR7) (Homo sapiens, UniProt P25106); test: [3H]VUF15485 displacement, HEK293T membranes; format: binding; settings: for pIC50: 5 nM [3H]VUF15485, 25 °C, 2 h
[2] = target: T1, hACKR3 (atypical chemokine receptor 3; CXCR7); test: BRET beta-arrestin2 recruitment, HEK293T; format: cell-based
[3] = target: T1, hACKR3 (atypical chemokine receptor 3; CXCR7); test: […]CXCL12 displacement, intact HEK293T cells; format: cell-based
[4] = target: hACKR3 (atypical chemokine receptor 3; CXCR7) (Homo sapiens, UniProt P25106, E213Q); test: homologous [3H]VUF15485 competition binding, HEK293T membranes
[5] = target: hACKR3 (atypical chemokine receptor 3; CXCR7) (Homo sapiens, UniProt P25106, Q301E); test: as above
[6] = target: hACKR3 (atypical chemokine receptor 3; CXCR7) (Homo sapiens, UniProt P25106, H298A); test: as above
[7] = target: hACKR3 (atypical chemokine receptor 3; CXCR7) (Homo sapiens, UniProt P25106, Y51A); test: as above
[8] = target: hACKR3 (atypical chemokine receptor 3; CXCR7) (Homo sapiens, UniProt P25106, V217A); test: as above
[9] = target: hACKR3 (atypical chemokine receptor 3; CXCR7) (Homo sapiens, UniProt P25106, S103D); test: as above
[10] = target: T1, hACKR3 (atypical chemokine receptor 3; CXCR7); test: as above
mouse ACKR3 (mACKR3) = mouse ACKR3 (mACKR3) (Mus musculus, UniProt P56485); test: NanoBiT beta-arrestin2 recruitment, HEK293T; format: cell-based
[11] = target: T1, hACKR3 (atypical chemokine receptor 3; CXCR7); test: [3H]VUF15485 saturation binding, HEK293T membranes
[12] = target: hACKR3 (atypical chemokine receptor 3; CXCR7) (Homo sapiens, UniProt P25106, H121A); test: homologous [3H]VUF15485 competition binding, HEK293T membranes
[13] = target: hACKR3 (atypical chemokine receptor 3; CXCR7) (Homo sapiens, UniProt P25106, D275N); test: as above
Sequence of hACKR3 (atypical chemokine receptor 3; CXCR7) (Homo sapiens, UniProt P25106, D275N) (P25106 whole entry D275N): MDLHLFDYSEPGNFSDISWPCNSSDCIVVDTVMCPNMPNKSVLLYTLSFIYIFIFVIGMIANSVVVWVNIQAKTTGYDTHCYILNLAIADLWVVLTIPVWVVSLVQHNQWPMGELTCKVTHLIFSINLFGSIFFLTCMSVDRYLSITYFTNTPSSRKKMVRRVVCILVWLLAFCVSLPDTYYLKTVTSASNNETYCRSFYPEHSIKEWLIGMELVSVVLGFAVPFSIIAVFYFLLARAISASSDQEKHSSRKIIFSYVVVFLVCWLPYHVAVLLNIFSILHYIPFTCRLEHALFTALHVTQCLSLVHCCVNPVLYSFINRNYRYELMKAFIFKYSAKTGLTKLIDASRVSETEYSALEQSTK

T1 sequence (P25106 whole entry): as the sequence (P25106 whole entry D275N) above, with N275D counted along it
Sequence of hACKR3 (atypical chemokine receptor 3; CXCR7) (Homo sapiens, UniProt P25106, E213Q) (P25106 whole entry E213Q): as the sequence (P25106 whole entry D275N) above, with E213Q, N275D counted along it
Sequence of hACKR3 (atypical chemokine receptor 3; CXCR7) (Homo sapiens, UniProt P25106, Y51A) (P25106 whole entry Y51A): as the sequence (P25106 whole entry D275N) above, with Y51A, N275D counted along it
Sequence of mouse ACKR3 (mACKR3) (P56485 whole entry): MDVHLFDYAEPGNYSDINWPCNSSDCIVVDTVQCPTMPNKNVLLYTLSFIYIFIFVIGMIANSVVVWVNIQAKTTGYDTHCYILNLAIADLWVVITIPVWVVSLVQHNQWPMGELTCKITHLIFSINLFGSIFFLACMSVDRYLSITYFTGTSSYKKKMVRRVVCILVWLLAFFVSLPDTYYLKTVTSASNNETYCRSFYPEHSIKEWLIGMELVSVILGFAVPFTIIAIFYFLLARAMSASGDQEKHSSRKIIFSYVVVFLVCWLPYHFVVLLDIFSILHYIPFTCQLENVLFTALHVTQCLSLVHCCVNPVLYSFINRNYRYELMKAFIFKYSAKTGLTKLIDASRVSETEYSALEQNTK
Sequence of hACKR3 (atypical chemokine receptor 3; CXCR7) (Homo sapiens, UniProt P25106, H121A) (P25106 whole entry H121A): as the sequence (P25106 whole entry D275N) above, with H121A, N275D counted along it
Sequence of hACKR3 (atypical chemokine receptor 3; CXCR7) (Homo sapiens, UniProt P25106, S103D) (P25106 whole entry S103D): as the sequence (P25106 whole entry D275N) above, with S103D, N275D counted along it
Sequence of hACKR3 (atypical chemokine receptor 3; CXCR7) (Homo sapiens, UniProt P25106, V217A) (P25106 whole entry V217A): as the sequence (P25106 whole entry D275N) above, with V217A, N275D counted along it
Sequence of hACKR3 (atypical chemokine receptor 3; CXCR7) (Homo sapiens, UniProt P25106, H298A) (P25106 whole entry H298A): as the sequence (P25106 whole entry D275N) above, with N275D, H298A counted along it
Sequence of hACKR3 (atypical chemokine receptor 3; CXCR7) (Homo sapiens, UniProt P25106, Q301E) (P25106 whole entry Q301E): as the sequence (P25106 whole entry D275N) above, with N275D, Q301E counted along it

## VUF16771 [28 in Adlere et al., 2019]
[1]
  pIC50: 5.8 ± 0.1

## CC1(C)[C@H]2CC=C(C[N+](C)(C)Cc3ccc(-c4ccccc4I)cc3)[C@@H]1C2.[I-] [39 in Wijtmans et al., 2012b, VUF11418]
[1]
  pIC50: 5.9 ± 0.3

## CC1(C)CN2C(CS/C(=N\C3CCCCC3)NC3CCCCC3)=CSC2=N1 [IT1t]
[1]
  IC50: ≥ 100 µM

## COc1cc(C(=O)N(CCC2CCCN2C)C/C(C)=C/c2ccccc2F)cc(OC)c1OC (stereo not shown) [VUF11207]
[2]
  EC50: 31.6 nM
[3]
  IC50: 10 nM

## c1cc(CN2CCCNCCNCCCNCC2)ccc1CN1CCCNCCNCCCNCC1 [AMD3100]
[1]
  IC50: ≥ 100 µM

## CCNC(=O)c1cnc(N2CCN(C3CCN(Cc4ccc(Cl)cc4)CC3)C(CC)C2)c(Cl)c1 (stereo not shown) [VUF11211]
[1]
  pIC50: 4.7 ± 0.2

## COc1cc(C(=O)N(CC[C@@H]2CCCN2C)C/C(C)=C/c2ccccc2F)cc(OC)c1OC [VUF13744]
[2]
  EC50: 39.8 nM
[3]
  IC50: 20 nM

## VUF16545 [1 in Uto-Konimi et al., 2013]
[1]
  pIC50: 7.8 ± 0.1

## VUF11403 [30 in Wijtmans et al., 2012a]
[1]
  pIC50: 7.9 ± 0.1

## COc1cc(C(=O)N(CC[C@H]2CCCN2C)C/C(C)=C/c2ccccc2F)cc(OC)c1OC [VUF15485, (R,E)-N-(3-(2-fluorophenyl)-2-methylallyl)-3,4,5-trimethoxy-N-(2-(1-methylpyrrolidin-2-yl)ethyl)benzamide]
[4]
  Ki: 10.5 nM
[5]
  Ki: 17 nM
[6]
  Ki: 44.7 nM
[7]
  Ki: 49 nM
[8]
  Ki: 38 nM
[2]
  EC50: 25.1 nM
[9]
  Ki: 95.5 nM
[10]
  Ki: 24.5 nM
Mouse ACKR3 (mACKR3)
  EC50: 20 nM
[3]
  IC50: 5.01 nM
[11]
  Kd: 16 ± 2.4 nM
[12]
  Ki: 55 nM
[13]
  Ki: 18.6 nM

## VUF10990 [10q in Wijtmans et al., 2011]
[1]
  pIC50: 5.9 ± 0.1

## VUF16779 [22 in Adlere et al., 2019]
[1]
  pIC50: 6.0 ± 0.1

## Oc1ccc(CN2CCC(CNCc3ccccc3)CC2)cc1 [9 in Adlere et al., 2019, VUF16774]
[1]
  IC50: 10 µM

## CC1(C)[C@H]2CC=C(C[N+](C)(C)Cc3ccc(-c4ccccc4Br)cc3)[C@@H]1C2.[I-] [38 in Wijtmans et al., 2012b, VUF11222]
[1]
  pIC50: 5.8 ± 0.2
